Test results taken from US20230075965A1, “USES OF BIOMARKERS FOR IMPROVING IMMUNOTHERAPY” (Dana-Farber Cancer Institute, Inc., priority 2020, published 2023).

Experiments:
[1] = system: HLA-E on HT29 and SW620 cells; test: Flow cytometry of surface HLA-E after IFN-gamma, STAT1 KO vs control KO; format: cell-based, human; conditions: HT29 and SW620, 5 ng/ml IFN-gamma overnight
Procedure: (§1) HT29 and SW620 cells were transduced with sgRNAs against STAT1 (or control OR genes) and treated overnight with vs. without 5 ng/ml IFN-gamma prior to staining. […] FIG. 6D CTG cytotoxicity assays (see Methods) for HT29 cells with HLA-E KO compared with control KO (data are represented as CTG cytotoxicity assays for HT29, SW620 cells with sgRNA against STAT1 (left) or HLA-E (right) or control KO (using OR10A2) at E:T 1:1, using 3-4 donors per line, n=7 different co-cultures, each co-culture was conducted in 6 replicates. (STAT1 p=7.24E-6, HLA-E p=2.27E-7, Mann-Whitney two sided test n=42). Data are represented as mean±SD). […] Pools of cells of the PRISM DNA-barcoded cell lines were labeled with a fluorescent conjugated antibody, sorted by flow cytometer into four bins based on its fluorescence levels and then sequenced to quantify the read counts of each barcode (and thus presence of cells from each cell line) in each bin. Surface protein expression scores were calculated per line from the read counts in each bin (see Method). […] Upper right: Normalized read counts of each bin sorted by SPIN. In view of the dynamic range of the antibody staining, the four bins were combined into two; reads from the top 2 bins with highest expression are labeled ‘High’ and reads from the 2 bins with lower staining are labeled ‘Low’. Middle right: calculated protein scores. […]

[2] = system: HLA-A/B/C on HT29 and SW620 cells; test: Flow cytometry of surface HLA-A/B/C after IFN-gamma, STAT1 KO vs control KO; format: cell-based, human; conditions: HT29 and SW620, 5 ng/ml IFN-gamma overnight
Procedure: as §1

Substance: IFN-gamma: interferon-gamma used to stimulate HLA-E and MHC class I expression on tumor cells
- HLA-E surface expression upon IFN-gamma stimulation [1]: upregulated in control KO, but not with STAT1 KO
- HLA-A/B/C surface expression upon IFN-gamma stimulation [2]: further increased with IFN-gamma stimulation in the control KO, but not in STAT1 KO cells
